# Source: PubChem BioAssay (NCI)
# Values joined by “and” are separate entries in the source; they are usually repeats but may differ in a detail not shown here. Identical values can stand only once.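 How tested: cells in 96-well plates exposed to compound for 48 hours at five concentrations. Abbreviation: GI50, concentration required for 50% inhibition of growth. TGI: total growth inhibition.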 Where a SMILES comes first, the peptide text is derived from it. [ ]: non-standard residue; d: D form. 2Nal = N[CH](Cc1ccc2ccccc2c1)C(=O)O
# Assays:
# Test in all cases: NCI tumour cell line growth inhibition, 48 h
# BT-549 breast = test system: BT-549 breast
# SNB-78 CNS = test system: SNB-78 CNS
# DMS 114 small cell lung = test system: DMS 114 small cell lung
# T-47D breast = test system: T-47D breast
# MDA-N = test system: MDA-N
# XF 498 CNS = test system: XF 498 CNS
# P388/ADR leukemia = test system: P388/ADR leukemia
# MCF7 breast = test system: MCF7 breast
# DMS 273 small cell lung = test system: DMS 273 small cell lung
# P388 leukemia = test system: P388 leukemia
# SN12K1 renal = test system: SN12K1 renal
# RXF-631 renal = test system: RXF-631 renal
SMILES,TGI (SNB-78 CNS),TGI (DMS 114 small cell lung),TGI (DMS 273 small cell lung),TGI (RXF-631 renal),TGI (XF 498 CNS),also measured
COc1ccc(/C=C\c2cc(OC)c(OC)c(OC)c2)c(O)c1O,> 89.6 µM and 48.5 µM,3.92 µM and 0.568 µM,63.1 µM,–,–,TGI (BT-549 breast): 32.3 µM; GI50 (SNB-78 CNS): 1.86 µM; GI50 (DMS 114 small cell lung): 0.196 µM; TGI (T-47D breast): > 79.7 µM; TGI (MDA-N): < 0.0304 µM; GI50 (XF 498 CNS): 2.95 µM; TGI (P388/ADR leukemia): 23.4 µM; GI50 (MCF7 breast): 0.05 µM; GI50 (DMS 273 small cell lung): 0.303 µM; TGI (P388 leukemia): 4.57 µM; TGI (SN12K1 renal): 1.08 µM
O=C(O)CCSC(=O)Nc1ccccc1Cl,> 100 µM,> 100 µM,> 100 µM,> 100 µM,> 100 µM,–
CCOC(=O)C1SC(=Nc2ccc(Cl)cc2C)N=C1C (stereo not given),76.7 µM,35.3 µM,66.9 µM,71.4 µM,40 µM,–
Cn1nc(-c2ccccc2)c(C(=O)/C=C/c2ccc(F)cc2)c(N2CCOCC2)c1=O,–,33.4 µM,53 µM,86.6 µM,42.7 µM,–
CC(=N)N(C)O,> 100 µM,33.2 µM,–,> 100 µM,> 100 µM,–
COc1ccc(NC(=O)CCc2cc(C(C)(C)C)n[nH]2)cc1,> 100 µM,–,> 100 µM,> 100 µM,> 100 µM,–
C/C(CCn1[nH]c(=O)ccc1=O)=N\Nc1ccc([N+](=O)[O-])cc1[N+](=O)[O-],> 100 µM,> 100 µM,> 100 µM,> 100 µM,> 100 µM,–
C#CCN(N=O)C(=O)NCCCC(NC(C)=O)C(=O)NCc1ccccc1 (stereo not given),> 100 µM,> 100 µM,–,> 100 µM,84.4 µM,–
NNC(=O)N/N=C1\C(=O)N(c2nccs2)C(=O)C(=O)C1c1nc2ccccc2s1 (stereo not given),> 100 µM,> 100 µM,> 100 µM,> 100 µM,> 100 µM,–
CN(O)C(=S)c1ccccc1,> 100 µM,4.12 µM,4.03 µM,2.92 µM,> 100 µM,TGI (BT-549 breast): > 100 µM; TGI (T-47D breast): > 100 µM; TGI (MDA-N): > 20.5 µM; TGI (MCF7 breast): > 100 µM
CC(C)C(NC(=O)C(CCCCN)NC(=O)C(Cc1c[nH]c2ccccc12)NC(=O)C(Cc1ccc(O)cc1)NC(=O)C(CS)NC(=O)C(N)Cc1ccc2ccccc2c1)C(=O)NC(CS)C(=O)NC(C(N)=O)C(C)O (stereo not given) (H-[2Nal]CYWKVCT-NH2; configuration not given here),23.2 µM,> 100 µM,> 100 µM,> 100 µM,> 100 µM,TGI (T-47D breast): > 12.5 µM; TGI (MDA-N): > 12.5 µM; TGI (MCF7 breast): > 12.5 µM
CN(C)CCNC(=O)c1cccc2ncc(-c3ccccc3)nc12,40 µM,26.6 µM,17.8 µM,> 82.5 µM,–,–
CN(C)CCC1(C2=CCCC2)CC/C(=C\c2ccccc2Cl)C1=O (stereo not given),29 µM,29.5 µM,–,28.1 µM,–,–
OC1CCC[C@@H]1Sc1ccccc1 (stereo not given in full),> 100 µM,> 100 µM,> 100 µM,> 100 µM,> 100 µM,–
NC(=Nc1nc(-c2ccccn2)cc2ccccc12)c1ccccn1,> 100 µM,–,–,0.244 µM,0.0644 µM,GI50 (BT-549 breast): 0.197 µM; TGI (BT-549 breast): > 100 µM; GI50 (T-47D breast): 0.00636 µM; GI50 (MDA-N): 0.445 µM; TGI (MDA-N): > 100 µM; GI50 (MCF7 breast): 0.148 µM; TGI (MCF7 breast): > 100 µM; GI50 (DMS 273 small cell lung): 0.0231 µM
